Assay [1] deals with SKBR3 (PI3Kα-Wild Type) cell line. Briefly: HTRF phospho-AKT(S473) cell assay in SKBR3 cells. Format: cell-based, human. As to conditions: Homo sapiens, SK-BR-3, 2 hours compound incubation, PDGF-BB stimulated. In outline: (§1)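 T47D: RPMI + 10% FBS + 0.2 units/mL insulin, top 5 μM. SKBR3: McCoy's 5A + 10% FBS, top 10 μM, 70 ng/ml PDGF-BB last 15 min. Both: 12-pt 1:3, 2 h, 37° C, max 0.5% DMSO; HTRF pAKT(S473); IC50.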
On the technique in general: Time-resolved FRET reads energy transfer from a long-lived donor to a nearby acceptor.

The subject of assay [2] is T47D (PI3Kα-H1047R) cell line. Briefly: HTRF phospho-AKT(S473) cell assay in T47D cells. Format: cell-based, human. As to conditions: Homo sapiens, 2 hours compound incubation. The method in brief:
as §1

The mark [3] stands for this setting: SKBR3 (PI3Kα-Wild Type) cells, HTRF phospho-AKT(S473).
[4] abbreviates: T47D (PI3Kα-H1047R) cells, HTRF phospho-AKT(S473).
Setting [5] is: HTRF phospho-AKT(S473), SKBR3 (PI3Kα-Wild Type) cells.
Where [6] appears, read: HTRF phospho-AKT(S473), T47D (PI3Kα-H1047R) cells.

Among the data in patent publication US12281122B1, “PI3K inhibitors” (Cogent Biosciences, Inc., priority 2023, dated 2025) are IC50 values, retold here.

pIC50: −log10 of the molar value. Bounds are passed on as bounds.

As usually defined, the pIC50 is −log10 of the IC50, conventionally taken in molar units. A higher pIC50 goes with a low IC50. For `COc1ncc(-c2nc3c([C@@H](C)Nc4ccc(Cl)nc4C(=O)NS(C)(=O)=O)cc(C)cc3c(=O)n2C)cn1` [Compound 856, (R)-6-chloro-3-((1-(2-(2-methoxypyrimidin-5-yl)-3,6-dimethyl-4-oxo-3,4-dihydroquinazolin-8-yl)ethyl)amino)-N-(methylsulfonyl) picolinamide], the pIC50 was no more than 5.30 in assay [1] (SKBR3 (PI3Kα-Wild Type) cell line, phospho-AKT(S473) HTRF) and 6.30 to 6.60 in assay [2] (T47D (PI3Kα-H1047R) cell line, phospho-AKT(S473) HTRF).
With `Cc1cc([C@@H](C)Nc2ccc(Cl)nc2C(=O)NS(C)(=O)=O)c2nc(N3CC[C@H](Oc4cnn(CC(F)(F)F)c4)C3)n(C)c(=O)c2c1` [Compound 330, 6-chloro-3-(((R)-1-(3,6-dimethyl-4-oxo-2-((S)-3-((1-(2,2,2-trifluoroethyl)-1H-pyrazol-4-yl)oxy)pyrrolidin-1-yl)-3,4-dihydroquinazolin-8-yl)ethyl)amino)-N-(methylsulfonyl) picolinamide], the negative-log IC50 (pIC50) in assay [1] (setting [3]) is 5.30 to 6.00; in assay [2] (setting [4]), greater than 6.60.
As to `Cc1cc([C@@H](C)Nc2ccc(Cl)nc2C(=O)NS(C)(=O)=O)c2nc(N3[C@@H]4CC[C@H]3C[C@H](c3cnc(C)nc3)C4)n(C)c(=O)c2c1` [Compound 300, 6-chloro-3-(((R)-1-(3,6-dimethyl-2-((1R,3S,5S)-3-(2-methylpyrimidin-5-yl)-8-azabicyclo[3.2.1]octan-8-yl)-4-oxo-3,4-dihydroquinazolin-8-yl)ethyl)amino)-N-(methylsulfonyl) picolinamide], the pIC50 in assay [1] (setting [3]) was no more than 5.30; in assay [2] (setting [4]), greater than 6.60.
For `Cc1cc([C@@H](C)Nc2ccc(Cl)nc2C(=O)NS(C)(=O)=O)c2nc(-c3ccn4nc(C)nc4c3)n(C)c(=O)c2c1` [Compound 822, (R)-6-chloro-3-((1-(3,6-dimethyl-2-(2-methyl-[1,2,4]triazolo[1,5-a]pyridin-7-yl)-4-oxo-3,4-dihydroquinazolin-8-yl)ethyl)amino)-N-(methylsulfonyl) picolinamide], the pIC50 was no more than 5.30 in assay [1] (setting [5]) and 6.30 to 6.60 in assay [2] (setting [6]).
As for `Cc1cc([C@@H](C)Nc2ccc(Cl)nc2C(=O)NS(C)(=O)=O)c2nc(N3C[C@@H]4[C@H](C3)[C@H]4c3cccnc3C)n(C)c(=O)c2c1` [Compound 385, 6-chloro-3-(((R)-1-(3,6-dimethyl-2-((1R,5S,6S)-6-(2-methylpyridin-3-yl)-3-azabicyclo[3.1.0]hexan-3-yl)-4-oxo-3,4-dihydroquinazolin-8-yl)ethyl)amino)-N-(methylsulfonyl) picolinamide], the results for the pIC50 in assay [1] (setting [3]) and in assay [2] (setting [4]) were 5.30 to 6.00 and greater than 6.60, respectively.
`Cc1cc([C@@H](C)Nc2ccc(Cl)nc2C(=O)NS(C)(=O)=O)c2nc(N3CC[C@@H](Oc4ccc(F)cc4)C3)n(C)c(=O)c2c1` [Compound 203, 6-chloro-3-(((R)-1-(2-((R)-3-(4-fluorophenoxy)pyrrolidin-1-yl)-3,6-dimethyl-4-oxo-3,4-dihydroquinazolin-8-yl)ethyl)amino)-N-(methylsulfonyl) picolinamide]: the figures for the pIC50 in assay [1] (setting [3]) and in assay [2] (setting [4]) were 5.30 to 6.00 and greater than 6.60, respectively.
Regarding `Cc1cc([C@@H](C)Nc2ccc(Cl)nc2C(=O)NS(C)(=O)=O)c2nc(N3CCC(c4ccnn4C)CC3)n(C)c(=O)c2c1` [Compound 389, (R)-6-chloro-3-((1-(3,6-dimethyl-2-(4-(1-methyl-1H-pyrazol-5-yl)piperidin-1-yl)-4-oxo-3,4-dihydroquinazolin-8-yl)ethyl)amino)-N-(methylsulfonyl) picolinamide], the values for the pIC50 in assay [1] (setting [3]) and in assay [2] (setting [4]) were 5.30 to 6.00 and greater than 6.60, respectively.
As to `Cc1cc([C@@H](C)Nc2ccc(Cl)nc2C(=O)NS(C)(=O)=O)c2nc(N3C[C@@H]4[C@H](C3)[C@H]4c3ccn(C(F)F)n3)n(C)c(=O)c2c1` [Compound 470, 6-chloro-3-(((R)-1-(2-((1R,5S,6R)-6-(1-(difluoromethyl)-1H-pyrazol-3-yl)-3-azabicyclo[3.1.0]hexan-3-yl)-3,6-dimethyl-4-oxo-3,4-dihydroquinazolin-8-yl)ethyl)amino)-N-(methylsulfonyl) picolinamide], the figures for the pIC50 in assay [1] (setting [5]) and in assay [2] (setting [6]) were 5.30 to 6.00 and greater than 6.60, respectively.
